Consider one sequence from patent US20040132188A1, “Use of non-complexing peptides for the preparation of a composition for transfection of a polynucleotide into a cell and compositions useful in gene therapy” (priority 2001, published 2004).

“Also recorded” adds a separate entry of the source. Ends that are not written are not given here.

Experiment [1] deals with HeLa cells. Description: Transfection in the presence of Bafilomycin A. The class given is cell-based. The settings on record: 175 nM Bafilomycin A, 150 ng pTG11236. The protocol: Transfection in the presence of Bafilomycin A: 6×10^4 HeLa cells were plated on 24 well plates. Cells were treated with 175 nM Bafilomycin A 30 min before and throughout the transfection (1 h incubation of cells with transfection mix in the absence of serum).
Bafilomycin A is a specific inhibitor of the vacuolar proton pump. Treatment with Bafilomycin inhibits the acidification of late endosomes. HeLa cells were treated with Bafilomycin A (175 nM) 30 min before and throughout the transfection (1 h incubation with transfection complexes in the absence of serum). 6×10^4 cells were transfected with 150 ng pTG11236 using PEI or ppTG1. The luciferase assay was performed 1 day after transfection.

For experiment [2], the system named is B6SJL mice, lungs. Description: In vivo gene transfer after intravenous injection, luciferase activity in the lungs. The procedure:
Mice were sacrificed at day 1.
Lungs were tested for luciferase activity.

In experiment [3] the test system is B6SJL mice, lungs. The experiment is described as above. The settings on record: 3 days after injection.
The nature of experiment [4]: Liposome leakage assay, POPC/cholesterol 3:2 liposomes. The class given is biochemical. An excerpt:
FIG. 9: Liposome leakage assay. […] Emitted fluorescence was plotted against peptide concentration. […] C) Comparison of ppTG1, ppTG20 and ppTG21 at pH 7.
Leakage activity was plotted against peptide concentration.

Another experiment concerns CHO cells. Description: Transfection in vitro, luciferase plasmid pTG11236. The class given is cell-based. The protocol: A comparison of ppTG1 and KALA was carried out in HeLa and CHO cells. 5×10^4 cells were seeded on 24 well plates. The next day, cells were transfected with 500 ng and 50 ng of pTG11236, complexed with ppTG1 or KALA in 30μl 0.9% NaCl. The charge ratio±varied from 1, 2, 3, 4, 7 to 10. Cells were harvested 20 h after transfection and lysis was obtained in 100 μl Promega lysis buffer. Luciferase activity and total protein concentrations in 20 μl were determined.

The test system of experiment [5] is HeLa cells. In words: Transfection in vitro, luciferase plasmid pTG11236. The class given is cell-based. The procedure:
Cells were plated on 24 well plates at a density of 4×10^4 (293-EBNA ) or 7×10^4 (HeLa, Renca) cells/well in DMEM supplemented with 10% FCS. The next day, the medium was replaced by 200 μl serum-free DMEM and plasmid (PTG11056 or pTG11236)/peptide complexes or plasmid/peptide/lipid complexes were prepared in 30 μl 0.9% NaCl or 5% glucose. After 20 min at room temperature these complexes were added to the cells which were then incubated for 2-3 h at 37° C. and 5% CO2 before 1 ml serum-containing DMEM was added. Approximately 20 hours later, cells were lysed by addition of 100 μl 1× Promega lysis buffer, 20 μl of the lysates were analysed for luciferase activity. Proteins were quantified with the bicinchonic acid (BCA) colorimetric method (Smith, Anal. Biochem. 150 (1985), 76-85). […]
HeLa cells were seeded at a density of 6×10^4 cells on 24 well plates. The next day, cells were incubated with 200 μl serum-free medium, 30 μl of plasmid (50 ng)/peptide/lipid mixtures were added and incubated for 3 h at 37° C. in 5% CO2. 1 ml of DMEM+10% FCS was then added. The next day, the medium was removed and cells were washed with 500 μl of PBS and subsequently treated with 100 μl of Promega lysis buffer. Plates were stored at −80° C. until luciferase activity was measured of 20 μl of the cell lysate. The protein assay was performed using the Pierce BCA kit.
JTS1 was dissolved to 1 mg/ml in 1 mM NaOH and mixed with DNA diluted in 5% glucose. ppTG1 was then added to this solution. The pcTG90/DOPE ppTG1 mixtures were prepared as described in Example 6. Transfection assays were performed on HeLa cells with 50 ng of plasmid as described in Example 6.
The series of ppTG1 derivatives listed in Material and Methods were tested for their gene transfer efficiencies in Hela cells. 6×10^4 cells were transfected with 50 ng pTG11236 complexed with increasing amounts of peptide. Luciferase activity was analyzed day 1 after transfection. The results are shown in FIG. 10B (ppTG20, ppTG21), FIG. 10C (ppTG25, ppTG26, ppTG27), FIG. 10D (ppTG28 to ppTG33), FIG. 10E (PEG-ppTG1 and PEG-ppTG20), FIG. 10F (ppTG22 to ppTG24) and FIG. 10G (ppTG20-D).

GLFKALLKLLKSLWKLLLKA: the “effect of Bafilomycin A on transfection efficiency” value in the experiment with HeLa cells [1] is “did not influence”. The “re-administration of peptide/plasmid complexes” value in the experiment with B6SJL mice, lungs [2] (at day 3 after the first injection) was “refractory”; with B6SJL mice, lungs [2] (at day 14 after the first injection) it was “re-appearance of reporter gene expression”. For the same sequence, in the experiment with B6SJL mice, lungs [2] (complexes of pTG11236 and peptide, intravenous, day 1), the “mice with gene expression in the lung” value is 5 out of 5. Also, in the experiment with B6SJL mice, lungs [2] (pTG11236/peptide complexes intravenously injected, luciferase day 1), the “gene transfer efficiency in the lung” value was “at least comparable to gene transfer with the optimized lipoplexes; also recorded: comparable to those obtained with the lipoplexes; also recorded: better than with JTS-1-K13”. Besides, in the experiment with B6SJL mice, lungs [2] (pcTG90/DOPE 1:2 complexes, intravenous, lung, day 1), the “improvement of gene expression by presence of peptide in complexes comprising cationic lipids” value is 10 factor. Moreover, in the experiment with B6SJL mice, lungs [3], the “gene expression over time” value is “background levels”. Moreover, in experiment [4] (POPC/Chol (3:2) liposomes, pH not separated (compared at pH 5 and pH 7)), the “liposome leakage activity” value was “destabilizes efficiently”. Besides, the “liposome leakage activity / calcein release” value in experiment [4] (POPC/chol liposomes, pH 7) is “efficiently liberate calcein”. The “liposome leakage of peptide/plasmid pTG11236 complexes” value in experiment [4] (charge ratios (P/N) of 1 or 0.8, pH 7) is recorded as “slightly reduced”; in experiment [4] (excess of peptide, P/N 5 or 10, pH 7), “comparable to free ppTG1”. For the same sequence, the “more efficient in gene transfer than KALA” value in the experiment on CHO cells (50 ng pTG11236) worked out at 68 fold; with CHO cells (500 ng pTG11236), 9 fold. Further, the “more efficient than the complex comprising KALA” value in the experiment on CHO cells (CHO cells, in the best case) is on record as 2500 fold; in the experiment on HeLa cells [5] (HeLa cells, in the best case) it was 3000 fold. Also, the “improvement of the transfection efficiency of pcTG90/DOPE” value in the experiment on HeLa cells [5] (50 ng plasmid, final charge ratio 3, 5 and 10, ppTG1 contributing 1/3, 1/5 and 1/10 of the positive charge) is on record as “at least 1 log”; in the experiment on HeLa cells [5] (50 ng plasmid, final charge ratio 5 and 10, ppTG1 contributing 2/3 and 7/10 of the positive charge), 2 log. For the same sequence, the “transfection, peptide alone” value in the experiment with HeLa cells [5] (50 ng plasmid, final charge ratio of 3) is “better results than pcTG90/DOPE alone”. For the same sequence, the “comparison as transfection reagent” value in the experiment with HeLa cells [5] (0.5 μg or 0.05 μg pTG11236) is “better transfection reagent than JTS-1-K13”. Moreover, the luciferase activities entry with HeLa cells [5] (0.5 μg or 0.05 μg pTG11236 with 1.17 μg or 0.117 μg peptide, charge ratio 1.8) was “comparable luciferase activities as observed for DNA formulated with Lipofectin”.
